Experiment: Isotope tracer infusion: circulatory turnover flux (Fcirc)
Type: in vivo, mouse
Conditions: fasted mice
Source text: To confirm this idea, and to test whether the same might be true of circulating 3HB and acetoacetate, a set of isotope-tracer infusion experiments was devised. The circulatory turnover flux (Fcirc) of a given metabolite refers to the rate at which tissues collectively take up the metabolite from arterial circulation; alternatively, Fcirc can be defined as the rate at which tissues collectively excrete the metabolite into the venous circulation, as these two rates are equal at steady state in minimally perturbative tracer infusions.
Isotope tracer infusion. For lactate circulatory turnover flux measurements, 10-14 weeks old C57BL/6 mice were catheterized via both left carotid artery and right jugular vein, as non-perturbative arterial blood sampling is required for precise measurement of circulating lactate labeling. Mice were allowed to recover for 5 days. Mice were fasted from ZT2 to ZT6.5. Sodium [2-^2H] or [U-^13C]lactate solution was diluted to 5% w/w in water, and infused into the double catheterized mice from ZT6.5 to ZT9 to pseudo steady state. Arterial blood was sampled to calculate the turnover rate for ^2H or ^13C lactate.
For other tracing experiments, 10-14 weeks old C57BL6/J mice or mice bearing tumors (KPC flank allografts or Kras^LSL-G12D/+Trp53^−/−Pdx-1-Cre GEMM, tumor sizes ˜150 mm^3) were catheterized via right jugular vein. Mice were allowed to recover from surgery for 3-5 days. For 3HB circulatory turnover flux experiments, mice were fasted from ZT2 to ZT6.5, and [3,4,4,4-^2H] or [U-^13C]3HB were infused to catheterized mice from ZT6.5 to ZT9. Tail blood was sampled to calculate the turnover rate for ^2H or ^13C 3HB.
Metabolic flux quantitation. Circulatory turnover flux, Fcirc was calculated as previously described (Hui et al., 2017), using arterial serum for lactate due to its substantial arterial-venous labeling gradient and tail vein serum for other nutrients:
[formula] R is the infusion rate of the labeled tracer and L is the fractional enrichment of infused labeled form of the metabolite tracer. Fcirc values of ^2H-labeled metabolites were corrected for kinetic isotope effect (KIE, determined from the enzymatic assays) by multiplying the observed Fcirc by KIE value of ^2H tracer.

Row | circulatory turnover flux [nmol/g/min] | Compound
1 | ~40 | [2H]C([2H])([2H])C([2H])(O)CC(=O)O (stereo not shown) [^2H-labeled 3HB, [3,4,4,4-^2H]3HB]
2 | 550 | [2H]C(C)(O)C(=O)[O-].[Na+] (stereo not shown) [^2H-labeled lactate, Sodium [2-^2H]lactate]
3 | ~40 | [13CH3][13CH](O)[13CH2][13C](=O)O (stereo not shown) [^13C-labeled 3HB, [U-^13C]3HB]
4 | 380 | [13CH3][13CH](O)[13C](=O)[O-].[Na+] (stereo not shown) [^13C-labeled lactate, Sodium [U-^13C]lactate]
